One data set has as its system SF-539. Put plainly: in vitro CNS cancer cell growth inhibition (NCI screen).
Another data set relates to UACC-257. Kind of data set: in vitro melanoma cell growth inhibition (NCI screen).
Another data set deals with ACHN. Put plainly: in vitro renal cancer cell growth inhibition (NCI screen).
The subject of another data set is SK-MEL-28. Kind of data set: in vitro melanoma cell growth inhibition (NCI screen).
The next data set deals with RXF-393. Kind of data set: in vitro renal cancer cell growth inhibition (NCI screen).
The next data set has as its system UO-31. The data set is described as above.
In another data set the test system is XF-498. Kind of data set: in vitro CNS cancer cell growth inhibition (NCI screen).
In the next data set the test system is MOLT-4. Kind of data set: in vitro leukemia cell growth inhibition (NCI screen).
In another data set the test system is M19-MEL. Kind of data set: in vitro melanoma cell growth inhibition (NCI screen).
The next data set relates to SK-MEL-2. Described as above.
Another data set relates to SK-MEL-5. The data set is described as above.
Another data set concerns NCI-H522. Put plainly: in vitro non-small cell lung cancer cell growth inhibition (NCI screen).
The test system of another data set is K-562. Kind of data set: in vitro leukemia cell growth inhibition (NCI screen).
The subject of a further data set is HL-60(TB). The description is as above.
For a further data set, the system named is COLO-205. Put plainly: in vitro colon cancer cell growth inhibition (NCI screen).
The next data set deals with HCT-116. Described as above.
For the next data set, the system named is UACC-62. Put plainly: in vitro melanoma cell growth inhibition (NCI screen).
Another data set has as its system HCT-15. Kind of data set: in vitro colon cancer cell growth inhibition (NCI screen).
The test system of another data set is human tumor cell lines. The class given is cell-based. The conditions noted are these: for GI50: Homo sapiens; for cytotoxicity against tumor cells (in words): cancer cell line panel.
The test system of the next data set is LXFL 529. Put plainly: in vitro non-small cell lung cancer cell growth inhibition (NCI screen).
For the next data set, the system named is 786-0. Put plainly: in vitro renal cancer cell growth inhibition (NCI screen).
For a further data set, the system named is DLD-1. Kind of data set: in vitro colon cancer cell growth inhibition (NCI screen).
The test system of the next data set is NCI-H460. Put plainly: in vitro non-small cell lung cancer cell growth inhibition (NCI screen).
The subject of another data set is CCRF-CEM. Kind of data set: in vitro leukemia cell growth inhibition (NCI screen).
The test system of the next data set is KM 12. Put plainly: in vitro colon cancer cell growth inhibition (NCI screen).
Another data set concerns U 251. Kind of data set: in vitro CNS cancer cell growth inhibition (NCI screen).
A further data set concerns HT 29. Kind of data set: in vitro colon cancer cell growth inhibition (NCI screen).
The next data set has as its system LOX1MVI. Put plainly: in vitro melanoma cell growth inhibition (NCI screen).
In a further data set the test system is SR. Put plainly: in vitro leukemia cell growth inhibition (NCI screen).
For a further data set, the system named is SF-268. Put plainly: in vitro CNS cancer cell growth inhibition (NCI screen).
The subject of another data set is SW 620. Put plainly: in vitro colon cancer cell growth inhibition (NCI screen).
The test system of another data set is OVCAR-8. Put plainly: in vitro ovarian cancer cell growth inhibition (NCI screen).
Another data set has as its system SK-OV-3. The data set is described as above.
Another data set has as its system MALME-3M. Put plainly: in vitro melanoma cell growth inhibition (NCI screen).
Another data set relates to NCI-H266. Kind of data set: in vitro non-small cell lung cancer cell growth inhibition (NCI screen).
The test system of another data set is OVCAR-3. Kind of data set: in vitro ovarian cancer cell growth inhibition (NCI screen).
The test system of another data set is NCI-H23. Kind of data set: in vitro non-small cell lung cancer cell growth inhibition (NCI screen).
Another data set deals with SNB-75. Kind of data set: in vitro CNS cancer cell growth inhibition (NCI screen).
For the next data set, the system named is TK-10. Put plainly: in vitro renal cancer cell growth inhibition (NCI screen).
The subject of another data set is M14. Put plainly: in vitro melanoma cell growth inhibition (NCI screen).
The mark [1] stands for this setting: non-small cell lung, CNS, melanoma, colon, leukemia, small cell lung, and renal cancer cell lines, read-out: logGI50 values (range over cell lines) (converted).

The values below come from US5789431A, “Naphthoquinone antitumor compound and method” (The University of North Carolina at Chapel Hill, priority 1996, dated 1998).

Read-outs that look alike come from different tables or passages of the source.

Turning to `CC(=O)NC1=C(NCc2ccc(Cl)cc2)C(=O)c2ccccc2C1=O` [Compound 42], the “cytotoxicity log GI50” value with SF-539 is -5.36 M; in the data set with UACC-257 it was -5.21 M; with ACHN it was -5.74 M; in the data set on SK-MEL-28 it was -5.26 M; with RXF-393 it was -5.37 M; in the data set with UO-31, -5.29 M. The “cytotoxicity log GI50” value with XF-498 is reported as -5.84 M; with MOLT-4 it was -5.62 M; with M19-MEL it was -5.28 M; with SK-MEL-2, -5.25 M; with SK-MEL-5, -5.26 M; with NCI-H522, -6.01 M. In addition, the “cytotoxicity log GI50” value is given as -5.61 M in the data set with K-562; -5.86 M with HL-60(TB); -5.27 M with COLO-205; -5.51 M with HCT-116; -5.58 M in the data set on UACC-62; -5.25 M with HCT-15.
As for `COc1ccc(Cn2c(C)nc3c2C(=O)c2ccccc2C3=O)cc1` [Compound 18], in the data set with human tumor cell lines (setting [1]), the GI50 was 1 to 10 µM. In addition, the “cytotoxicity log GI50” value in the data set on SF-539 is on record as -5.42 M; in the data set on LXFL 529, -5.37 M; with 786-0, -5.27 M; with DLD-1, -5.33 M; in the data set on NCI-H460 it was -5.62 M; with CCRF-CEM it was -5.39 M. Further, the “cytotoxicity log GI50” value was -5.27 M with KM 12; -5.20 M in the data set on U 251; -5.59 M in the data set with MOLT-4; -5.31 M with HT 29; -5.60 M in the data set on LOX1MVI; -5.22 M in the data set on NCI-H522. In addition, the “cytotoxicity log GI50” value in the data set on SR is on record as -5.84 M; with K-562 it was -5.49 M; in the data set with SF-268, -5.35 M; in the data set on HL-60(TB), -5.38 M; with HCT-116, -5.43 M; in the data set with UACC-62 it was -5.34 M. Also, the “cytotoxicity log GI50” value in the data set with HCT-15 is reported as -5.76 M.
Consider `Cc1ccc(Cn2c(C)nc3c2C(=O)c2ccccc2C3=O)cc1` [Compound 17], for which, in the data set with human tumor cell lines (setting [1]), the GI50 is 1 to 10 µM. Further, the “cytotoxicity against tumor cells (in words)” value in the data set on human tumor cell lines is “highly active against many of the cancer cell types tested”. The “cytotoxicity log GI50” value in the data set with SF-539 was -5.88 M; in the data set on LXFL 529, -5.76 M; in the data set with 786-0 it was -5.66 M; with DLD-1, -5.91 M; in the data set with NCI-H460 it was -6.41 M; in the data set on SW 620 it was -5.48 M. Moreover, the “cytotoxicity log GI50” value in the data set with CCRF-CEM was -5.70 M; in the data set with U 251, -5.73 M; in the data set with MOLT-4 it was -6.19 M; in the data set on HT 29 it was -5.90 M; in the data set with LOX1MVI, -6.22 M; with NCI-H522, -5.50 M. Moreover, the “cytotoxicity log GI50” value was -6.48 M in the data set with SR; -6.08 M in the data set with K-562; -5.46 M with SF-268; -5.52 M in the data set with OVCAR-8; -5.72 M in the data set on HL-60(TB); -6.12 M in the data set with HCT-116. Moreover, the “cytotoxicity log GI50” value is reported as -5.95 M in the data set with UACC-62 and -6.21 M in the data set on HCT-15.
For `CCn1c(CCl)nc2c1C(=O)c1ccccc1C2=O` [Compound 22], the GI50 in the data set with human tumor cell lines (cancer cells, printed as GI50, log scale values, read-out: GI50 values) was in the range of 0.158 to 1 µM. In the data set with human tumor cell lines, the “cytotoxicity against tumor cells (in words)” value is “highly active against many of the cancer cell types tested”. Moreover, the “cytotoxicity log GI50” value with SK-OV-3 is reported as -6.29 M; with MALME-3M, -5.98 M; in the data set with NCI-H266 it was -6.65 M; in the data set on CCRF-CEM it was -6.76 M; in the data set with MOLT-4 it was -6.45 M; in the data set with SK-MEL-5 it was -6.38 M. Besides, the “cytotoxicity log GI50” value is -6.53 M with NCI-H522, -6.40 M in the data set with SR and -5.89 M in the data set with UACC-62.
As to `Cc1nc2c(n1Cc1ccc(F)cc1)C(=O)c1ccccc1C2=O` [Compound 19], the GI50 in the data set on human tumor cell lines (setting [1]) was 1 to 10 µM. The “cytotoxicity log GI50” value in the data set with SF-539 was -5.16 M; in the data set with LXFL 529, -4.87 M; in the data set on 786-0 it was -4.88 M; in the data set on OVCAR-3, -4.82 M; in the data set with NCI-H460, -5.39 M; in the data set on MALME-3M it was -5.05 M. Further, the “cytotoxicity log GI50” value in the data set on RXF-393 is recorded as -4.83 M; in the data set with CCRF-CEM, -4.98 M; in the data set with U 251 it was -5.18 M; in the data set with MOLT-4 it was -5.27 M; in the data set on HT 29, -5.03 M; with NCI-H23, -4.88 M. Moreover, the “cytotoxicity log GI50” value with LOX1MVI was -5.14 M; in the data set on M19-MEL it was -5.44 M; in the data set on SK-MEL-5, -4.99 M; in the data set on NCI-H522 it was -4.97 M; with SR it was -5.37 M; in the data set on K-562, -5.25 M. The “cytotoxicity log GI50” value is -5.34 M in the data set on SF-268; -5.26 M in the data set with HL-60(TB); -5.16 M in the data set on HCT-116; -5.28 M with UACC-62; -5.37 M in the data set on HCT-15.
On to `CCC(c1ccccc1F)c1nc2c(n1CC)C(=O)c1ccccc1C2=O` (stereo not shown) [Compound 64], for which the “cytotoxicity log GI50” value was -5.53 M in the data set with RXF-393; -5.07 M in the data set with U 251; -4.62 M with MOLT-4; -4.60 M in the data set with SNB-75; -5.49 M in the data set with TK-10.
For `CCn1c(-c2ccc(F)cc2)nc2c1C(=O)c1ccccc1C2=O` [Compound 26], in the data set with human tumor cell lines (cancer cell panel, general / most cell lines, read-out: logGI50 values in the cancer cell line panel (converted)), the GI50 was about 10 µM. The “cytotoxicity log GI50” value was -4.68 M with SK-OV-3; -4.47 M with OVCAR-3; -4.35 M in the data set with MALME-3M; -4.27 M in the data set on RXF-393; -4.15 M with M14.
